# pIC50: −log10 of the molar value. Values joined by “and” are separate entries in the source; they are usually repeats but may differ in a detail not shown here. Equal entries are not always repeated.
# Experiments:
# [1] = molecular target: T1, EthR protein (Mycobacterium tuberculosis, UniProt P9WMC1); test: Inhibition of interaction of EthR with its target DNA sequence (BIAcore); type: binding, M. tuberculosis H37Rv; conditions: compound 3 μM, EthR 540 nM, 37° C.
# Procedure: a) Measurement of the Activity of the Compounds on the Inhibition of Interaction of EthR with its Target DNA Sequence
# The in vitro measurements of inhibition of binding of the EthR protein to its target DNA sequence were performed on a machine of BIAcore®2000 type (AB, Uppsala, Sweden).
# The chips used are CM5 chips sold by the company GE Healthcare. Both the channels of a chip were activated with a solution containing 200 mM of EDC(N-ethyl-N′-(3-[…])carbodiimide) and 50 mM of NHS (N-hydroxysuccinimide). Next, streptavidin (500 ng/μl in a solution containing 10 mM of sodium acetate (pH 3.5) was injected over 12 minutes at a flow rate of 10 μl/minute. The 106-base-pair biotinylated DNA fragment corresponding to the ethA-R intergene region was deposited on one of the two channels of the chip at a rate of 200 ng/ml in order to obtain stable binding of streptavidin corresponding to 50 RU (resonance units). This DNA fragment was obtained by PCR using the chromosomal DNA of M. tuberculosis H37Rv as matrix and O-270: 5′-[…]-3′ (SEQ ID: No. 1) and O-271: 5′-biotin-[…]-3′ (SEQ ID: No. 2). The second channel was functionalized with a 113-base-pair biotinylated DNA fragment (fragment +14 to +127 of the bla gene of E. coli PCR-amplified using the following oligonucleotides: O-343: 5′-[…]-3′ (SEQ ID: No. 3) and O-344: 5′-biotin-[…]-3′ (SEQ ID: No. 4).
# Measurement of the binding of the EthR protein to the immobilized DNA was performed at 37° C. in a reference buffer containing 10 mM of Tris-HCl (pH=7.5), 200 mM of NaCl, 0.1 mM of EDTA, 1 mM of DTT and 1% of DMSO at a flow rate of 20 μl/minute. The specific interaction (SI) of EthR with the 106-base-pair double-stranded DNA sequence, expressed in resonance units, corresponds to the difference in signal observed between the two channels.
# For each inhibition measurement, the compounds of the invention are dissolved in the reference buffer at a concentration of 3 μM. The compounds of the invention are then incubated in the presence of the protein (540 nM) at 37° C. for 5 minutes, and each solution is then injected onto the two channels of the chip for 3 minutes at a flow rate of 20 μl/minute. The inhibition values are calculated at the end of the injection according to the following equation: […]
# in which SIEthR corresponds to the value measured without ligand and SIEthR+ligand corresponds to the value measured in the presence of to ligand.
# [2] = Measurement of the solubility (PBS pH 7.4 vs methanol, LC/MS); type: physicochemical; conditions: pH 7.4, aqueous buffer, kinetic from dmso stock
# Procedure: e) Measurement of the Solubility of the Compounds of the Invention
# 40 μl of a solution containing a compound of the invention at a concentration of 10 mM in DMSO were diluted in 1.960 ml of methanol, and another 40 μl were diluted in 1.960 ml of a PBS solution containing 675 mM of NaCl, 13.5 mM of KCl, 50 mM of Na2HPO4.2H2O and 10 mM of KH2PO4 at a pH of 7.4. The two solutions were stirred for 24 hours at room temperature, and then centrifuged for 5 minutes and filtered through 0.45 μm filters. 20 μl of each solution were then diluted in 118 μl of methanol and analyzed by liquid chromatography coupled to mass spectrometry (LC/MS). The solubility was determined by the ratio of the areas under the curve of the mass signal for the compound of the invention, according to the following equation: […]
# [3] = molecular target: T1, EthR protein; test: In vitro measurement of the IC50 (EthR/DNA binding, BIAcore); parameters: species or system M. tuberculosis H37Rv
# Procedure: b) In Vitro Measurement of the IC50 of the Compounds of the Invention.
# The in vitro measurement of this datum was performed according to the same principle as for the measurement of inhibition of the EthR/DNA binding using the BIAcore technique.
# The specific interaction between EthR and the specific 106-bp DNA fragment was measured on a range of six concentrations of the compounds of the invention, this range extending from 0.11 μM to 27 μM. The IC50 values are then extrapolated from the sigmoid curves obtained.
# [4] = system: M. tuberculosis H37Rv; test: Ethionamide-potentiating effect, fluorimetric detection on Bactec MGIT 960; type: cell-based; conditions: for bacterial growth-inhibiting properties of the compound alone: 25 μM, no ETH (lines A5 and D3); for MIC: Mycobacterium tuberculosis, H37RV, read-out: MIC for ETH in the presence of compound; for MIC / potentiation of the ethionamide activity (factor): compound 25 μM
# [5] = system: M. bovis BCG; type: cell-based, M. bovis BCG 1173P2; conditions: from MIC of ETH alone (6 μM) and MIC of ETH with 25 μM compound
# [6] = strain 1%, no ETH, ligand 25 μM
# [7] = strain 100%, ETH 0.025 μg/mL + ligand 25 μM
# [8] = strain 100%, ETH 0.05 μg/mL + ligand 25 μM
# [9] = strain 100%, ETH 0.1 μg/mL + ligand 25 μM
# [10] = strain 100%, ETH 0.25 μg/mL + ligand 25 μM
# [11] = strain 100%, no ETH, ligand 25 μM
# T1 sequence (P9WMC1 whole entry, looked up): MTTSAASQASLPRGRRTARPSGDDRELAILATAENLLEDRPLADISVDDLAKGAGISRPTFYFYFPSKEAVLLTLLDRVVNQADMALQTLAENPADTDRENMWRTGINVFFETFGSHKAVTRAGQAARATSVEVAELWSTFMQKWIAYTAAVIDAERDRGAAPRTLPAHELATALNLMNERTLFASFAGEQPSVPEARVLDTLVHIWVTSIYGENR
smiles,measurement,setting,value
"O=C(CC1CC1)N1CCC(c2nc(-c3cccs3)no2)CC1 [Compound 33, 2-cyclopropyl-1-[4-(3-thiophen-2-yl[1,2,4]oxadiazol-5-yl)piperid-1-yl]ethanone]",inhibition at 3 µM,[1],71%
same,solubility at 24 h,[2],63.5 µg/mL
same,pIC50,[3],5.95
same,bacterial growth-inhibiting properties of the compound alone,[4],absence of bacterial growth-inhibiting properties
same,MIC,[4],0.05 µg/mL and 0.3 µM
same,State,[4]; [6],R
same,fluorescence reading D + 0,[4]; [6],0
same,fluorescence reading D + 1,[4]; [6],0
same,"fluorescence reading D + 5 (first column, c6)",[4]; [6],0
same,"fluorescence reading D + 5 (second column, c7)",[4]; [6],0
same,fluorescence reading D + 6,[4]; [6],1
same,"fluorescence reading D + 7 (first column, c9)",[4]; [6],180
same,"fluorescence reading D + 7 (second column, c10)",[4]; [6],319
same,fluorescence reading J + 8,[4]; [6],400
same,State,[4]; [7],R
same,fluorescence reading D + 0,[4]; [7],0
same,fluorescence reading D + 1,[4]; [7],0
same,"fluorescence reading D + 5 (first column, c6)",[4]; [7],200
same,"fluorescence reading D + 5 (second column, c7)",[4]; [7],353
same,fluorescence reading D + 6,[4]; [7],400
same,"fluorescence reading D + 7 (first column, c9)",[4]; [7],400
same,"fluorescence reading D + 7 (second column, c10)",[4]; [7],400
same,fluorescence reading J + 8,[4]; [7],400
same,State,[4]; [8],S
same,fluorescence reading D + 0,[4]; [8],0
same,fluorescence reading D + 1,[4]; [8],0
same,"fluorescence reading D + 5 (first column, c6)",[4]; [8],0
same,"fluorescence reading D + 5 (second column, c7)",[4]; [8],0
same,fluorescence reading D + 6,[4]; [8],0
same,"fluorescence reading D + 7 (first column, c9)",[4]; [8],0
same,"fluorescence reading D + 7 (second column, c10)",[4]; [8],0
same,fluorescence reading J + 8,[4]; [8],0
same,State,[4]; [9],S
same,fluorescence reading D + 0,[4]; [9],0
same,fluorescence reading D + 1,[4]; [9],0
same,"fluorescence reading D + 5 (first column, c6)",[4]; [9],0
same,"fluorescence reading D + 5 (second column, c7)",[4]; [9],0
same,fluorescence reading D + 6,[4]; [9],0
same,"fluorescence reading D + 7 (first column, c9)",[4]; [9],0
same,"fluorescence reading D + 7 (second column, c10)",[4]; [9],0
same,fluorescence reading J + 8,[4]; [9],0
same,State,[4]; [10],S
same,fluorescence reading D + 0,[4]; [10],0
same,fluorescence reading D + 1,[4]; [10],0
same,"fluorescence reading D + 5 (first column, c6)",[4]; [10],0
same,"fluorescence reading D + 5 (second column, c7)",[4]; [10],0
same,fluorescence reading D + 6,[4]; [10],0
same,"fluorescence reading D + 7 (first column, c9)",[4]; [10],0
same,"fluorescence reading D + 7 (second column, c10)",[4]; [10],0
same,fluorescence reading J + 8,[4]; [10],0
same,State,[4]; [11],R
same,fluorescence reading D + 0,[4]; [11],0
same,fluorescence reading D + 1,[4]; [11],0
same,"fluorescence reading D + 5 (first column, c6)",[4]; [11],400
same,"fluorescence reading D + 5 (second column, c7)",[4]; [11],400
same,fluorescence reading D + 6,[4]; [11],400
same,"fluorescence reading D + 7 (first column, c9)",[4]; [11],400
same,"fluorescence reading D + 7 (second column, c10)",[4]; [11],400
same,fluorescence reading J + 8,[4]; [11],400
same,Potentiation %,[5],2500%
"O=C(Cc1cccs1)N1CCC(c2nc(-c3cccs3)no2)CC1 [Compound 43, 2-thiophen-2-yl-1-[4-(3-thiophen-2-yl[1,2,4]oxadiazol-5-yl)piperid-1-yl]ethanone]",inhibition at 3 µM,[1],93%
same,solubility at 24 h,[2],26.9 µg/mL
same,pIC50,[3],6.28
same,bacterial growth-inhibiting properties of the compound alone,[4],absence of bacterial growth-inhibiting properties
same,MIC,[4],< 0.025 µg/mL and < 0.15 µM
same,potentiation of the ethionamide activity (factor),[4],≥ 40 fold
same,potentiation of the ethionamide activity (factor),[4]; listed as compound 43,about 40 fold
same,State,[4]; [6],R
same,fluorescence reading D + 0,[4]; [6],0
same,fluorescence reading D + 1,[4]; [6],0
same,"fluorescence reading D + 5 (first column, c6)",[4]; [6],0
same,"fluorescence reading D + 5 (second column, c7)",[4]; [6],0
same,fluorescence reading D + 6,[4]; [6],0
same,"fluorescence reading D + 7 (first column, c9)",[4]; [6],168
same,"fluorescence reading D + 7 (second column, c10)",[4]; [6],292
same,fluorescence reading J + 8,[4]; [6],400
same,State,[4]; [7],S
same,fluorescence reading D + 0,[4]; [7],0
same,fluorescence reading D + 1,[4]; [7],0
same,"fluorescence reading D + 5 (first column, c6)",[4]; [7],0
same,"fluorescence reading D + 5 (second column, c7)",[4]; [7],0
same,fluorescence reading D + 6,[4]; [7],0
same,"fluorescence reading D + 7 (first column, c9)",[4]; [7],0
same,"fluorescence reading D + 7 (second column, c10)",[4]; [7],0
same,fluorescence reading J + 8,[4]; [7],0
same,State,[4]; [8],S
same,fluorescence reading D + 0,[4]; [8],0
same,fluorescence reading D + 1,[4]; [8],0
same,"fluorescence reading D + 5 (first column, c6)",[4]; [8],0
same,"fluorescence reading D + 5 (second column, c7)",[4]; [8],0
same,fluorescence reading D + 6,[4]; [8],0
same,"fluorescence reading D + 7 (first column, c9)",[4]; [8],0
same,"fluorescence reading D + 7 (second column, c10)",[4]; [8],0
same,fluorescence reading J + 8,[4]; [8],0
same,State,[4]; [9],S
same,fluorescence reading D + 0,[4]; [9],0
same,fluorescence reading D + 1,[4]; [9],0
same,"fluorescence reading D + 5 (first column, c6)",[4]; [9],0
same,"fluorescence reading D + 5 (second column, c7)",[4]; [9],0
same,fluorescence reading D + 6,[4]; [9],0
same,"fluorescence reading D + 7 (first column, c9)",[4]; [9],0
same,"fluorescence reading D + 7 (second column, c10)",[4]; [9],0
same,fluorescence reading J + 8,[4]; [9],0
same,State,[4]; [10],S
same,fluorescence reading D + 0,[4]; [10],0
same,fluorescence reading D + 1,[4]; [10],0
same,"fluorescence reading D + 5 (first column, c6)",[4]; [10],0
same,"fluorescence reading D + 5 (second column, c7)",[4]; [10],0
same,fluorescence reading D + 6,[4]; [10],0
same,"fluorescence reading D + 7 (first column, c9)",[4]; [10],0
same,"fluorescence reading D + 7 (second column, c10)",[4]; [10],0
same,fluorescence reading J + 8,[4]; [10],0
same,State,[4]; [11],R
same,fluorescence reading D + 0,[4]; [11],0
same,fluorescence reading D + 1,[4]; [11],0
same,"fluorescence reading D + 5 (first column, c6)",[4]; [11],400
same,"fluorescence reading D + 5 (second column, c7)",[4]; [11],400
same,fluorescence reading D + 6,[4]; [11],400
same,"fluorescence reading D + 7 (first column, c9)",[4]; [11],400
same,"fluorescence reading D + 7 (second column, c10)",[4]; [11],400
same,fluorescence reading J + 8,[4]; [11],400
same,Potentiation %,[5],2500%
"O=C(Nc1cccs1)N1CCC(c2nc(-c3cccs3)no2)CC1 [Compound 50, 4-(3-thiophen-2-yl[1,2,4]oxadiazol-5-yl)piperidine-1-carboxylic acid thiophen-2-ylamide]",inhibition at 3 µM,[1],96%
same,solubility at 24 h,[2],2.9 µg/mL
same,pIC50,[3],6.36

# — patent US8338599B2, “Compounds having a potentiating effect on the activity of ethionamide and uses thereof” (priority 2006, dated 2012)
